molecular target: T1, 5-lipoxygenase (Mus musculus, UniProt P48999); test: 5-lipoxygenase inhibition: release of LTC4 from zymosan-stimulated mouse peritoneal macrophage cells; assay type: cell-based; settings: 10^-5 mol/l, read-out: In vitro % inhibition effect on the release of LTC4
T1 construct: A cell suspension containing peritoneal cells of male mice 8-10 weeks old was obtained; endogenous in cells; host or cells: mouse peritoneal macrophages (male mice 8-10 weeks old), zymosan-stimulated
T1 sequence (P48999 1-674): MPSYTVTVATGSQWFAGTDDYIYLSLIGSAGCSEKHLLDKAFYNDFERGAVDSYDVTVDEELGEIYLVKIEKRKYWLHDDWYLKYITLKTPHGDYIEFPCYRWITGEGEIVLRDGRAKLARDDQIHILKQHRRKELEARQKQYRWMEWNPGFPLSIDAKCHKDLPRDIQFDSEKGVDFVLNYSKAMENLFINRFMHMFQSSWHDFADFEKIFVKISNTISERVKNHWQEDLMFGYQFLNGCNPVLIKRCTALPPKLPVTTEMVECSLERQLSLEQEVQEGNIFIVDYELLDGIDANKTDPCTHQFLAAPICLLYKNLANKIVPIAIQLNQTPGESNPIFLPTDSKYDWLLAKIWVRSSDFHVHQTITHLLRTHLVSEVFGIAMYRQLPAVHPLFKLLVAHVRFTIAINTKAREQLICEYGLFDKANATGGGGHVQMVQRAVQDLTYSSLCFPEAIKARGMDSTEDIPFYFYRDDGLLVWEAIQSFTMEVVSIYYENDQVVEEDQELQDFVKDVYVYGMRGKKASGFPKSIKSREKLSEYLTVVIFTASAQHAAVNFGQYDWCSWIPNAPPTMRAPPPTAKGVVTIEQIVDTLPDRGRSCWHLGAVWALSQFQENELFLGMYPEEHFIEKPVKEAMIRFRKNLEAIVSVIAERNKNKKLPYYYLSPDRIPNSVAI
From the text: 5. In vitro determination of cyclooxygenase inhibition and 5-lipoxygenase inhibition.
After activation of the cell, arachidonic acid contained in cell membranes is metabolized in two ways. Leukotrienes, inter alia leukotriene C4, are formed under the action of the enzyme 5-lipoxygenase (5-LO), and prostanoids are formed under the action of the enzyme cyclooxygenase (CO). In in vitro systems, the metabolites are secreted from the cell.
To investigate the cyclooxygenase-inhibiting and the 5-lipoxygenase-inhibiting properties, the inhibitory effect of the test substances on the biosynthesis of the arachidonic acid derivatives leukotriene C4 (LTC4) and 6-ketoprostaglandin F1 α (6-keto-PGF1 α) is determined in vitro on mouse peritoneal macrophage cells. This was accomplished by determining the LTC4 and 6-keto-PGF1 α contents in a culture medium of mouse peritoneal macrophage cells by zymosan stimulation as described by Scott et al. (J. Exp. Med. 152 (1980), 324-335) and by Fradin et al. (Prostaglandins, 33 (1987), 579-589).
A cell suspension containing peritoneal cells of male mice 8-10 weeks old was obtained in a known manner. A commercially available cell culture solution (RPMI 1640 from Messrs. Gibco) was used to which heparin (I0 international units/ml) and antibiotics were added according to the recipe of Bonney et al. (Biochem. J. 176 (1978) 422-433). The cell suspension was adjusted to a cell concentration of 10^6 cells per ml and distributed uniformly on titer plates containing […] (wells). These were kept for two hours in a humidified incubator filled with air enriched with 7% CO2. Cells not adhering to the titer cell walls were then removed by washing. The remaining macrophage cells adhering to the walls were incubated for about 12 hours in a suspension medium to which 0.1% bovine serum albumin (BSA) were added. The suspension medium was then replaced by a Hanks balanced salt solution (HBSS) containing 10 mM Hepes (hydroxyethyl-piperazinoethanesulfonic acid), to which a 0.1% strength solution of the test substances in aqueous, 1% strength dimethylformamide or only the solvent had been added. After 15 minutes the arachidonic acid metabolism was stimulated by adding 10 particles of zymosan (=glycoproteinmixture, isolated from cell walls of beer yeast, Saccharomyces cerevisiae, manufactured by Sigma Chemical Co., Munich) per titer cell. After 2 hours, samples of each of the supernatant liquids were investigated for their 6-keto-PGF1 α and LTC4 contents by means of an enzyme immunoassay (EIA) carried out by the method of Pradelles et al. (Analytical Chem. 57 (1985), 1170-1173). The determination of LTC4 and the determination of 6-keto-PGF1 α were each carried out in comparison with a comparative scale on suitable dilutions of the samples (1:50 to 1:250 for the LTC4 determination and 1:250 to 1:1250 for the 6-keto-PGF1 α determination). To determine the inhibitory effect of a 10^-5 molar concentration of the compounds, the amount of reference eicosanoids was determined and the inhibitory effect was calculated from this in % inhibition compared to the measurements of the zymosan controls.

Compared with `Cc1ccnc(N2CCN(CCc3c(C)n4c5c(cc(C(O)C(C)C)cc35)CCC4)CC2)c1` (stereo not drawn) [Example 19, 5,6-Dihydro-8-(1-hydroxy-2-methylpropyl)-2-methyl-1-{2-[4-(4-methylpyridin-2-yl)piperazin-1-yl]ethyl}-4H-pyrrolo-[3,2,1-ij]quinoline], `Cc1ccnc(N2CCN(CCc3c(C)n4c5c(cc(N)cc35)CCC4)CC2)c1` [Example 20, 8-Amino-5,6-dihydro-2-methyl-1-{2-[4-(4-methylpyridin-2-yl)piperazin-1-yl]ethyl}-4H-pyrrolo[3,2,1-ij]quinoline] is lower in inhibition at 10 µM: 55% for the first, 0% for the second.

First: Cc1c(CCN2CCN(c3ccc(Br)cn3)CC2)c2cccc3c2n1CCC3 [Example 43]
Second: Cc1ccnc(N2CCN(CCc3c(-c4ccc(O)cc4)n4c5c(cccc35)CCC4)CC2)c1 [Example 8, 2-(4-hydroxyphenyl)-1-{2-[4-(4-methylpyridin-2-yl)piperazin-1-yl]ethyl}-5,6-dihydro-4H-pyrrolo[3,2,1-ij]quinoline]
The inhibition at 10 µM of the first is lower: 24% for the first, 99% for the second.

First: C=CCCC1CCc2cccc3c(CCN4CCN(c5cc(C)ccn5)CC4)c(C)n1c23 (stereo not drawn) [Example 62]
Second: Cc1cc2c3c(c1)c(CCN1CCC(C(=O)c4ccc(F)cc4)CC1)c(C)n3CCC2 [Example 55]
The inhibition at 10 µM of the first is higher: 94% for the first, 45% for the second.
